{
  "source": "patent US20170368082A1",
  "about": "“FORMULATIONS OF BRINCIDOFOVIR” (priority 2016, published 2017)",
  "key": {"[1]": {"test": "Infusion vehicle (5% dextrose) compatibility", "assay_type": "physicochemical", "settings": "ambient", "description": "A brincidofovir formulation comprising 10 mg/mL brincidofovir, 200 mM sodium phosphate, and 69 mM dextrose (pH=8.0) was diluted with the testing infusion vehicle (5% dextrose solution) to yield c(BCV)=0.5 and 1.0 mg/mL solutions. The diluted solutions were stored at ambient conditions, and samples were collected at initially at the beginning of the experiment, and after 2 h, 8 h, and 24 h and evaluated for appearance, pH, and recovery of c(BCV) (via HPLC). […] Detailed results of the study are summarized below (Table 18).\nThe Formulation 3a was diluted with the infusion vehicle (5% dextrose) solution to yield c(BCV)=0.5 mg/mL and 1.0 mg/mL solutions. The appearance, pH, and brincidofovir recovery (determined via HPLC) were evaluated at the time of preparing the test solution (to), and after 2 h (t2h), 8 h (t8h), and 24 h (t24h)"}, "[2]": {"test": "PBMC PK of CDV-PP following IV and oral suspension BCV", "assay_type": "in vivo, human", "settings": "BCV 50 mg, 2- or 4-h IV infusion", "description": "Two single dose BCV studies in healthy subjects contributed data for this analysis. The first study was a 2-period crossover bioequivalence study that enrolled 24 subjects who received two formulations of BCV oral suspension 100 mg fasted, one in each period. Data from 12 subjects who had PBMCs collected in Period 1 were included in this analysis; these subjects were 100% female, 31-59 years, and 58-88 kg. The second study, outlined above, enrolled 40 subjects who received IV BCV or placebo. Data from 18 subjects who received BCV 50 mg as either a 2-h or 4-h IV infusion were included in this analysis; these subjects were 100% male, 18-46 years, 64-106 kg. Serial PBMC samples were collected over 14 days and assayed by HPLC-MS-MS. PBMC CDV-PP PK parameters were determined by non-compartmental analysis."}, "[3]": {"test": "Maximum tolerated dose study, single 2-hour IV infusion (Phase 1)", "assay_type": "in vivo, Sprague-Dawley CD rats", "description": "For Phase 1, Sprague-Dawley CD® rats (2/sex/dosing interval) were dosed with brincidofovir via 2-hour IV infusion once at 2, 4, 10 or 15 mg/kg. The maximum feasible dose (MFD) was limited to 15 mg/kg because of increased hemolytic potential when the concentration of brincidofovir exceeds 1 mg/mL in the dosing solution. The dose volume was 10 mL/kg/hr for all dosing intervals. Each dose administration was followed by a 2-3 day observation period. At the end of the Phase 1 treatment period, all animals were euthanized and discarded without macroscopic examination.\nFor Phase 1 (MTD), up to four dose levels of brincidofovir were administered as escalating single doses in naïve male and female rats via intravenous infusion (2-hour). Each dose administration was followed by a 2-3 day observation period. Each subsequent dose level was increased and administered to naïve animals based on the response to the preceding doses until the maximum tolerated dose (MTD) was identified, or until the maximum feasible dose (MFD) based on prior evidence of hemolysis of 15 mg/kg was achieved.\nDuring Phase 1, each animal received a single dose administered via intravenous infusion (2-hours), followed by a 2-3 day observation period after each dose interval. Following the single intravenous (2-hour) infusion, the animals had their jackets and dosing sets removed and were not returned to saline maintenance.\nFor dose observations, Phase 1: Signs of poor health or toxic or pharmacologic effects (e.g., abnormalities in general condition, appearance, activity, behavior, respiration, etc.) observed during infusion period were recorded."}, "human whole blood": {"system": "human whole blood", "test": "Hemolytic potential, cyanmethemoglobin method, human whole blood", "assay_type": "cell-based", "settings": "for Mean HgB Concentration: interference control, Phase 2", "description": "Each concentration of test item for the rat was mixed separately in a 1:4 ratio with rat whole blood while each concentration of test item for the human was mixed separately in a 1:4 ratio with human whole blood. These samples plus control samples [vehicle control (vehicle+whole blood, 1 for rat and 1 for humans), positive control (1% Saponin+whole blood), untreated whole blood control and negative control (saline+whole blood) were analyzed for hemolysis (supernatant hemoglobin concentration).\n(§1) The rat and human whole blood samples were incubated in test or control items at 37±1° C. for 20 minutes and then immediately (within 2 minutes) centrifuged at 3500±100 rpm (2740 g) at room temperature for 5-10 minutes. The supernatant was extracted and subjected to a hemoglobin analysis using the cyanmethemoglobin method employed on the Siemens Advia 120 hematology analyzer. If the test item has a potential for causing hemolysis, then hemoglobin released from lysed red blood cells into the plasma supernatant can be quantified via the reaction of heme iron in solution being oxidized from a ferrous to a ferric state in the presence of potassium cyanide. The reaction results in the formation of methemoglobin, which then combines with cyanide to form a stable cyanmethemoglobin. When measured spectrophotometrically at 546 nm the absorbance of cyanmethemoglobin follows Beer's Law and is directly proportional to the concentration of hemoglobin released into solution.\nas §1, with “Without wishing to be bound by theory, if” for “If”"}, "[4]": {"settings": "c(BCV) 0.5 mg/mL in 5% dextrose, 0 h"}, "[5]": {"settings": "c(BCV) 0.5 mg/mL in 5% dextrose, 2 h"}, "[6]": {"settings": "c(BCV) 0.5 mg/mL in 5% dextrose, 8 h"}, "[7]": {"settings": "c(BCV) 0.5 mg/mL in 5% dextrose, 24 h"}, "[8]": {"settings": "c(BCV) 1.0 mg/mL in 5% dextrose, 0 h"}, "[9]": {"settings": "c(BCV) 1.0 mg/mL in 5% dextrose, 2 h"}, "[10]": {"settings": "c(BCV) 1.0 mg/mL in 5% dextrose, 8 h"}, "[11]": {"settings": "c(BCV) 1.0 mg/mL in 5% dextrose, 24 h"}},
  "note": "Entries after “also recorded” stand apart in the source; their conditions may differ.",
  "data": [
    {"compound": "CCCCCCCCCCCCCCCCOCCCOP(=O)(O)CO[C@H](CO)Cn1ccc(N)nc1=O", "note": "[Brincidofovir]", "values": [
      {"measurement": "Appearance", "setting": "[1]; [4]", "result": "Clear, colorless"},
      {"measurement": "Measured pH", "setting": "[1]; [4]", "result": 8.2},
      {"measurement": "Observed c(BCV)", "setting": "[1]; [4]", "result": 0.51, "unit": "mg/mL"},
      {"measurement": "Appearance", "setting": "[1]; [5]", "result": "Clear, colorless"},
      {"measurement": "Measured pH", "setting": "[1]; [5]", "result": 8.3},
      {"measurement": "Observed c(BCV)", "setting": "[1]; [5]", "result": 0.51, "unit": "mg/mL"},
      {"measurement": "Appearance", "setting": "[1]; [6]", "result": "Clear, colorless"},
      {"measurement": "Measured pH", "setting": "[1]; [6]", "result": 8.2},
      {"measurement": "Observed c(BCV)", "setting": "[1]; [6]", "result": 0.51, "unit": "mg/mL"},
      {"measurement": "Appearance", "setting": "[1]; [7]", "result": "Clear, colorless"},
      {"measurement": "Measured pH", "setting": "[1]; [7]", "result": 8.2},
      {"measurement": "Observed c(BCV)", "setting": "[1]; [7]", "result": 0.49, "unit": "mg/mL"},
      {"measurement": "Appearance", "setting": "[1]; [8]", "result": "Clear, colorless"},
      {"measurement": "Measured pH", "setting": "[1]; [8]", "result": 8.2},
      {"measurement": "Observed c(BCV)", "setting": "[1]; [8]", "result": 1.0, "unit": "mg/mL"},
      {"measurement": "Appearance", "setting": "[1]; [9]", "result": "Clear, colorless"},
      {"measurement": "Measured pH", "setting": "[1]; [9]", "result": 8.2},
      {"measurement": "Observed c(BCV)", "setting": "[1]; [9]", "result": 1.0, "unit": "mg/mL"},
      {"measurement": "Appearance", "setting": "[1]; [10]", "result": "Clear, colorless"},
      {"measurement": "Measured pH", "setting": "[1]; [10]", "result": 8.2},
      {"measurement": "Observed c(BCV)", "setting": "[1]; [10]", "result": 1.0, "unit": "mg/mL"},
      {"measurement": "Appearance", "setting": "[1]; [11]", "result": "Clear, colorless"},
      {"measurement": "Measured pH", "setting": "[1]; [11]", "result": 8.2},
      {"measurement": "Observed c(BCV)", "setting": "[1]; [11]", "result": 1.0, "unit": "mg/mL"},
      {"measurement": "Intracellular CDV-PP exposure vs BCV 100 mg oral suspension", "setting": "[2]", "result": "comparable"},
      {"measurement": "Survival", "setting": "[3]; 2, 4, 10 or 15 mg/kg", "result": "survived until their scheduled euthanasia"},
      {"measurement": "Tolerability", "setting": "[3]; 2, 4, 10 or 15 mg/kg single 2-hour IV infusion", "result": "all doses were well tolerated"},
      {"measurement": "Clinical signs", "setting": "[3]; Dose 1 (2 mg/kg), both males", "result": "rapid breath and hunched posture, with and without piloerection, partially closed eyes, and decreased activity"},
      {"measurement": "Clinical signs", "setting": "[3]; Dose 2 (4 mg/kg), both males and one female", "result": "irregular breathing"},
      {"measurement": "Clinical signs", "setting": "[3]; Dose 3 (10 mg/kg)", "result": "No clinical signs were observed"},
      {"measurement": "Clinical signs", "setting": "[3]; Dose 4 (15 mg/kg), both males and one female", "result": "decreased activity with or without irregular breathing, piloerection, and bilateral partially closed eyes"},
      {"measurement": "Maximum feasible dose (MFD)", "setting": "[3]; single 2-hour IV infusion", "result": 15, "unit": "mg/kg"},
      {"measurement": "Hemocompatibility / hemolytic potential", "setting": "human whole blood; 0.2, 0.5 and 1.6 mg/mL", "result": "no hemolytic potential in human whole blood; also recorded: no effect from brincidofovir on hemocompatibility"},
      {"measurement": "Mean HgB Concentration", "setting": "human whole blood; Tube 2A: Test Item (0.2 mg/mL) + saline", "result": 0.0, "unit": "g/dL"},
      {"measurement": "Mean HgB Concentration", "setting": "human whole blood; Tube 2B: Test Item (0.5 mg/mL) + saline", "result": 0.0, "unit": "g/dL"},
      {"measurement": "Mean HgB Concentration", "setting": "human whole blood; Tube 2C: Test Item (1.6 mg/mL) + saline", "result": 0.0, "unit": "g/dL"}
    ]}
  ]
}
